Data taken from US4567165A, “N-Methanesulfonic acid derivatives of 3-demethoxyistamycin B” (Zaidan Hojin Biseibutsu Kagaku Kenkyu Kai, priority 1984, dated 1986).
In brackets after ≈: the same amount, converted by molar mass.

Columns and labels:
[1] = system: Pseudomonas aeruginosa TI-13; assay: Minimum inhibitory concentration, standard serial dilution method on Mueller-Hinton agar; assay type: cell-based; conditions: 17 hours; for Minimum Inhibitory concentration: 37° C.
From the text: (§1) Minimum inhibitory concentrations (mcg/ml) of the parent 3-demethoxyistamycin B were also estimated in the same manner for the comparison purpose and also are shown in Table 1.

[2] = system: Pseudomonas aeruginosa H9; assay: as above; assay type: cell-based; conditions: 37° C., 17 hours
From the text: as §1

[3] = system: Escherichia coli K-12 C600 R135; assay: as above; assay type: cell-based; conditions: 17 hours; for Minimum Inhibitory concentration: 37° C.
From the text: as §1

[4] = system: Pseudomonas aeruginosa GN315; assay: as above; assay type: cell-based; conditions: 37° C., 17 hours
From the text: as §1

[5] = system: Serratia marcescens; assay: as above; assay type: cell-based; conditions: 37° C., 17 hours
From the text: as §1

[6] = system: Providencia Pv 16; assay: as above; assay type: cell-based; conditions: 17 hours; for Minimum Inhibitory concentration: 37° C.
From the text: as §1

[7] = system: Escherichia coli JR66/W677; assay: as above; assay type: cell-based; conditions: 37° C., 17 hours
From the text: as §1

[8] = system: Staphylococcus aureus Ap01; assay: as above; assay type: cell-based; conditions: 37° C., 17 hours
From the text: as §1

[9] = system: Pseudomonas aeruginosa A3; assay: as above; assay type: cell-based; conditions: 37° C., 17 hours
From the text: as §1

[10] = system: Staphylococcus aureus 209P; assay: as above; assay type: cell-based; conditions: for Minimum Inhibitory concentration: Staphylococcus aureus 209P, Mueller-Hinton agar, 37° C., 17 hours
From the text: as §1

[11] = Acute toxicity, intravenous, in mice; conditions: mouse, in vivo, mice (ICR, adult female), single administration in saline
Method: Acute toxicity of the various N-methanesulfonic acid derivatives of 3-demethoxyistamycin B of the invention has been determined by the following procedure:
A test compound or substance was dissolved in 0.25 ml of a physiological saline solution and the solution of the test compound or substance so prepared was intravenously administered into a series of mouse groups each consisting of six mice (ICR strain, adult female, body weight 20 g±0.5 g) as the test animal, so that the test compound or substance was given to each mouse. Acute toxicity of 3-demethoxyistamycin B was also estimated in the same manner as above for the comparison purpose.

[12] = system: Escherichia coli JR225; assay: Minimum inhibitory concentration, standard serial dilution method on Mueller-Hinton agar; assay type: cell-based; conditions: JR225, 17 h, read-out: Minimum Inhibitory concentration
From the text: as §1

[13] = system: Escherichia coli K-12 LA290 R55; assay: as above; assay type: cell-based; conditions: K12LA290R55, 17 h, read-out: Minimum Inhibitory concentration
From the text: as §1

[14] = system: Escherichia coli K-12 ML1629; assay: as above; assay type: cell-based; conditions: K12ML1629, 37° C., 17 hours
From the text: as §1

[15] = system: Escherichia coli K-12 R5; assay: as above; assay type: cell-based; conditions: K12R5, 17 h, read-out: Minimum Inhibitory concentration
From the text: as §1

[16] = system: Escherichia coli K-12; assay: as above; assay type: cell-based; conditions: K12, 37° C., 17 hours
From the text: as §1

3-demethoxyistamycin B-mono-N-methanesulfonic acid sodium salt [Compound (1)]
Minimum Inhibitory concentration [1]: 25 µg/mL | Minimum Inhibitory concentration [2]: 50 µg/mL | Minimum Inhibitory concentration [3]: 6.25 µg/mL | Minimum Inhibitory concentration [4]: 100 µg/mL

3-demethoxyistamycin B-tetra-N-methanesulfonic acid sodium salt [Compound (4)]
Minimum Inhibitory concentration [2]: 50 µg/mL | Minimum Inhibitory concentration [5]: 3.13 µg/mL | Minimum Inhibitory concentration [6]: 1.56 µg/mL | Minimum Inhibitory concentration [7]: 6.25 µg/mL | Minimum Inhibitory concentration [8]: 1.56 µg/mL

3-demethoxyistamycin B-di-N-methanesulfonicacid sodium salt [Compound (2)]
Minimum Inhibitory concentration [1]: 25 µg/mL | Minimum Inhibitory concentration [2]: 50 µg/mL | Minimum Inhibitory concentration [3]: 6.25 µg/mL | Minimum Inhibitory concentration [5]: 3.13 µg/mL | Minimum Inhibitory concentration [6]: 1.56 µg/mL | Minimum Inhibitory concentration [7]: 3.13 µg/mL | Minimum Inhibitory concentration [9]: 0.78 µg/mL | Minimum Inhibitory concentration [8]: 0.78 µg/mL | Minimum Inhibitory concentration [10]: 0.78 µg/mL | Minimum Inhibitory concentration [4]: 100 µg/mL

3-demethoxyistamycin B-tri-N-methanesulfonic acid sodium salt [Compound (3)]
Minimum Inhibitory concentration [1]: 25 µg/mL | Minimum Inhibitory concentration [2]: 50 µg/mL | Minimum Inhibitory concentration [5]: 6.25 µg/mL | Minimum Inhibitory concentration [7]: 3.13 µg/mL | Minimum Inhibitory concentration [8]: 0.78 µg/mL | Minimum Inhibitory concentration [10]: 1.56 µg/mL | Minimum Inhibitory concentration [4]: 50 µg/mL

CNCC1CCC(N)C(OC2C(N)CCC(N(C)C(=O)CN)C2O)O1 (stereo not drawn) [3-Demethoxyistamycin B]
LD50 [11]: 100 to 200 mg/kg | MIC [12]: 0.78 µg/mL (≈ 2.17 µM) | MIC [13]: 1.56 µg/mL (≈ 4.34 µM) | MIC ([1]; TI13, 37° C.): 6.25 µg/mL (≈ 17.4 µM) | MIC [14]: 0.78 µg/mL (≈ 2.17 µM) | MIC [2]: 12.5 µg/mL (≈ 34.8 µM) | MIC [15]: 1.56 µg/mL (≈ 4.34 µM) | MIC ([3]; K12C600R135, 37° C.): 0.78 µg/mL (≈ 2.17 µM) | MIC [5]: 0.78 µg/mL (≈ 2.17 µM) | MIC ([6]; PV16, 37° C.): 0.78 µg/mL (≈ 2.17 µM) | MIC [7]: 0.78 µg/mL (≈ 2.17 µM) | MIC [16]: 0.78 µg/mL (≈ 2.17 µM) | MIC [9]: 0.39 µg/mL (≈ 1.08 µM) | MIC [8]: 0.39 µg/mL (≈ 1.08 µM) | MIC ([10]; Staphylococcus aureus, 209P, 17 h, read-out: Minimum Inhibitory concentration): < 0.2 µg/mL | MIC [4]: 6.25 µg/mL (≈ 17.4 µM)
